For series [1], the system named is T98G, GBM10, and GBM43 glioma cells. The series can be described thus: Matrigel invasion assay. The format is cell-based, Human. To be noted: 5 μM PPF, 24 hours, 10% FBS. The protocol:
(§1) FIGS. 27A and 27B depict that PPF suppresses GBM cell invasion and Rac1 activation. FIG. 27A—T98G, GBM10, and GBM43 glioma cells were treated with 5 μM PPF and invasion was assayed over 24 hours utilizing a Matrigel invasion assay, *p<0.05. FIG. 27B—T98G glioma cells were serum starved, pre-incubated with 5 μM PPF or vehicle for 1 hour, and then stimulated with 10% FBS for 2-10 mins. Cell lysates were harvested and equal concentrations of protein were assessed for Rac1 activation.
(§2) Referring now to FIGS. 27A and 27B: The inventors next examined whether PPF inhibited TROY dependent glioma cell invasion. […] Briefly, 5.0×10^5 glioma cells were seeded in 100-mm diameter culture dishes and incubated overnight at 37° C. Subsequently, cells were serum starved for 16 hours at 37° C. Cells were then harvested, re-suspended in growth factor reduced Matrigel (Becton Dickinson) (1.0×10^5 cells/50 uL), added in triplicates to collagen-coated transwell chambers, and allowed to invade through Matrigel in presence of 10% FBS and/or 5 μM PPF. After incubation for 24 hours at 37° C., non-invaded cells were scrapped off the upper side of the membrane and cells invaded to the other side of the membrane were fixed with 4% paraformaldehyde (PFA) (Affymetrix) and stained with DAPI (Invitrogen). Nuclei of invaded cells were counted in five high power fields (HPF) with a 20× objective.

Series [2] has as its system TROY. The series can be described thus: TROY expression in GBM cells by immunoblotting (Western blot). It counts as cell-based, Human. The protocol:
(§3) FIGS. 24A-24D illustrate that PPF treatment decreases TROY expression in GBM cells. FIG. 24A—a Western blot analysis of TROY expression in T98G cells. Cells were treated with PPF at indicated concentrations for 6 hrs, lysed, and cell lysates immunoblotted with anti-TROY antibody. Immunoblotting of α-Tubulin in cell lysates is included as a loading control. FIG. 24B—Western blot analysis of TROY expression in T98G, GBM43, and GBM10 cells. Cells were treated with PPF at indicated concentrations for 24 hrs, lysed, and cell lysates immunoblotted with anti-TROY and α-Tubulin antibodies. FIG. 24C—Western Blot analysis of TROY expression in GBM10 and GBM43 primary glioma cells. Cells were treated with 5 μM PPF, lysed at the indicated time-points, and the lysates immunoblotted with an anti-TROY antibody. Immunoblotting of β-Actin in cell lysates is included as a loading control. FIG. 24D—Western Blot analysis of T98G, GBM10 and GBM43 glioma cells treated with 5 μM PPF for 24 hours. Lysates were immunoblotted with anti-TROY, anti-TNFR1, anti-EGFR, and β-Actin antibodies.
Cell Culture Conditions: Human glioma cell line T98G (ATCC) was maintained in DMEM with high glucose (Invitrogen) supplemented with 10% heat-inactivated fetal bovine serum (FBS) (Invitrogen) in a 37° C., 5% CO2 atmosphere at constant humidity. The primary glioma patient derived xenograft (PDX) lines GBM10 and GBM43 were derived from patient surgical samples and maintained as flank xenografts in immunodeficient mice. GBM10 and GBM43 flank tumor were resected, brought to single cell suspension via mechanical dissociation, and maintained in DMEM+10% FBS for in vitro experiments. In the experiments with FBS stimulation, the cells were serum starved (DMEM+0.1% Bovine Serum Albumin (BSA)) for 16 hours before stimulation with 10% FBS in DMEM.
Referring now to FIGS. 24A, 24B, 24C, and 24D: The inventors investigated if PPF could be utilized pharmacologically to decrease TROY expression in GBM cells. The long-term established cell line T98G was first utilized to test the efficacy of PPF. Cells were treated with increasing concentration of PPF, 1 to 20 μM, lysed, and TROY expression assessed by immunoblotting. Briefly, monolayers of cells were washed in phosphate-buffered saline (PBS) containing 1 mM phenylmethylsulfonylfluoride and 1 mM sodium orthovanadate and then lysed in 2×SDS sample buffer containing protease and phosphatase inhibitors. Protein concentrations were determined using the BCA Assay (Pierce). Thirty micrograms of total protein was loaded per lane and separated by SDS-PAGE. […] Protein bands were detected using SuperSignal Chemiluminescent Substrate (Pierce) with a UVP BioSpectrum 500 Imaging System.
On the technique in general: A western blot detects proteins with antibodies after separation by electrophoresis.

Another series relates to CNS-1 rat model. To be noted: systemic PPF treatment, via modulation of microglia; cited from earlier work.
Series [3] deals with T98G, GBM10, and GBM43 cells. The series can be described thus: CellTiterGlo glioma cell cytotoxicity / viability assay. The format is cell-based, Human. The settings on record: all three GBM cell lines; PPF 0.5 to 20 μM; 72 hours. As for the experimental part:
(§4) FIG. 25A—T98G, GBM43, and GBM10 cells were incubated with increasing concentrations of PPF (0, 5, 50, and 500 μM). After 0, 48, 96 and 144 hours of treatment, cell were trypsinized and counted using an automated cell counter. FIG. 24B—GBM43, GBM10, and T98G glioma cells were treated with increasing doses of PPF (0.5, 1, 5, 10, and 20 μM) in triplicate. The Cell Titer Glo (Promega) reagent was used to measure survival. Raw values were normalized on a plate-by-plate basis such that 100% cell viability was equivalent to the mean of vehicle wells and 0% cell viability was equivalent to the mean of the MG132 positive control. The normalized data was used to assess viability of glioma cells after PPF treatment.
(§5) Referring now to FIGS. 25A and 25B: To determine if PPF influences glioma cell proliferation, the inventors treated T98G, GBM10, and GBM43 cells with increasing concentrations of PPF and evaluated cell proliferation over the course of 144 hours. Briefly, 1.25×10^5 cells were seeded (n=3) in 12-well plates in 1 mL of DMEM supplemented with 10% FBS and allowed to attach at 37° for 16 hrs. […] After 0, 48, 96 and 144 hours of treatment, the cells were trypsinized and counted using the automated cell counter. […] Subsequently, 100 μL of CellTiterGlo® reagent was added to each well and luminescence was measured using Envision Reader. […]
A general note: Cellular ATP, detected with luciferase, serves as a proxy for viable cell number.

The test system of another series is EGFR. Description: EGFR expression in glioma cells by Western blot. The format is cell-based, Human. The settings on record: T98G, GBM10 and GBM43 cells, 5 μM PPF, 24 hours. The protocol: as §3, with “FIG. 24D—Western Blot analysis of T98G, GBM10 and GBM43 glioma cells treated with 5 μM PPF for 24 hours. Lysates were immunoblotted with anti-TROY, anti-TNFR1, anti-EGFR, and β-Actin antibodies.” left out
(§6) Referring now to FIGS. 24A, 24B, 24C, and 24D: The inventors investigated if PPF could be utilized pharmacologically to decrease TROY expression in GBM cells. […] Cells were treated with increasing concentration of PPF, 1 to 20 μM, lysed, and TROY expression assessed by immunoblotting. […] Protein concentrations were determined using the BCA Assay (Pierce). […] Protein bands were detected using SuperSignal Chemiluminescent Substrate (Pierce) with a UVP BioSpectrum 500 Imaging System.

The conditions of series [4]: clinical trials, cited from earlier work.
For series [5], the system named is TROY. To be noted: Reference 41; cited from earlier work.
The subject of another series is TNFR1. Description: TNFR1 expression in glioma cells by Western blot. The format is cell-based, Human. The settings on record: T98G, GBM10 and GBM43 cells, 5 μM PPF, 24 hours. The protocol:
as §3, with “FIG. 24D—Western Blot analysis of T98G, GBM10 and GBM43 glioma cells treated with 5 μM PPF for 24 hours. Lysates were immunoblotted with anti-TROY, anti-TNFR1, anti-EGFR, and β-Actin antibodies.” left out
as §6

The subject of a further series is Rac1. Description: Rac1 activation assay after FBS stimulation. The format is cell-based, Human. The settings on record: T98G cells; 5 μM PPF 1 hour, then 10% FBS 2-10 mins. As for the experimental part:
as §1, §2

A further series concerns NF-κB. The series can be described thus: NF-κB activation (phosphorylation) by immunoblot. The format is cell-based, Human. To be noted: T98G and GBM43 cells; PPF 5 μM. As for the experimental part: (§7) FIGS. 26A-26C depict that PPF sensitizes GBM cells to TMZ and radiotherapy. FIG. 26A—A clonogenic assay was used to assess T98G and GBM43 cells survival after TMZ and radiation treatment. Cells were pre-treated with 5 μM PPF for 24 hours, and then either treated with 250 μM TMZ for 24 hours or exposed to 2 Gy radiation. Graph depicts the surviving fraction in the treated cells compared to vehicle (VC) treated or non-treated (NT) cells, **p<0.01. FIG. 26B—T98G glioma cells were treated with vehicle, PPF (5 μM), TMZ (250 μM), and PPF in combination with TMZ. TMZ-induced apoptosis was assayed by immunoblot analysis of cell lysates with an antibody to cleaved PARP. Immunoblotting for α-Tubulin was included as a loading control. FIG. 26C—T98G, GBM10, and GBM43 cells were treated with PPF (5 μM), lysed, and then immunoblotted to assess the activation of AKT and NF-κB. Immunoblotting for […] is included as a loading control.
(§8) Referring now to FIGS. 26A, 26B, and 26C: Knockdown of TROY expression with shRNA decreases TMZ resistance in GBM cells in vitro (See Reference 42). […] Following combination therapy, cells were trypsinized, counted, and plated in a 6-well culture dish at densities of 100, 250, and 500 cells per well in triplicate. Cells were incubated for 12 days then fixed, stained with 0.5% crystal violet solution, and counted manually by blinded observers. […]

The next series deals with T98G and GBM43 cells. The series can be described thus: Clonogenic survival assay with TMZ or radiation. It counts as cell-based, Human. As for the experimental part:
as §7, §8

In another series the test system is microglia. The settings on record: Reference 41; cited from earlier work.
In series [6] the test system is T98G, GBM10, and GBM43 cells. Description: Glioma cell proliferation by automated cell counting. The format is cell-based, Human. To be noted: doses up to 500 μM, 0-144 hours. The protocol: as §4, §5
Another series has as its system AKT. The series can be described thus: AKT activation (phosphorylation) by immunoblot. It counts as cell-based, Human. To be noted: T98G and GBM43 cells; PPF 5 μM. The protocol: as §7, §8
Series [7] concerns T98G, GBM10, and GBM43 cells. Description: Lamellipodia formation and membrane ruffling (F-actin staining). The settings on record: 5 μM PPF 1 hour, then 10% FBS 5 min. The format is cell-based, Human. The protocol:
FIGS. 28A and 28B depict that PPF suppresses GBM cell membrane ruffling. FIG. 28A—GBM43 cells were preincubated with 5 μM PPF or vehicle for 1 hour prior to 10% FBS stimulation for 5 min. After FBS stimulation, cells were fixed, permeabilized, and stained for F-actin. For each experimental condition, at least 12 images were taken randomly. Arrowhead indicates membrane ruffles. FIG. 28B—Graph depicts the average lamellipodia in T98G, GBM10, and GBM43 cells in the presence or absence of 10% FBS with or without 5 μM PPF as indicated. Lamellipodia were traced using Image J software.
Referring now to FIGS. 28A and 28B: The inventors investigated lamellipodia formation and membrane ruffling. Briefly, glioma cells were plated onto 10-well glass slides pre-coated with 10 μg/ml laminin at the density of 3000 cells/well for 24 hours at 37° C. Subsequently, cells were serum starved for 16 hours. The cells were pre-incubated with 5 μM PPF or vehicle for 1 hour prior to 10% FBS stimulation for 5 min. After FBS stimulation, cells were fixed in 4% PFA, permeabilized with 0.1% Triton X-100, and incubated with Alexa Fluor® 555 Phalloidin (Invitrogen) to stain for F-actin. Slides were mounted with ProLong® reagent with DAPI and imaged using a Zeiss LSM 510 microscope. For each experimental condition, at least 12 images were randomly taken. Lamellipodia were traced using ImageJ software.

A further series relates to cleaved PARP. The series can be described thus: Apoptosis by immunoblot for cleaved PARP. It counts as cell-based, Human. To be noted: T98G cells; PPF 5 μM, TMZ 250 μM. The protocol: as §7, §8

Consider one molecule from patent US10426777B2, “Methods used to treat cancer” (THE TRANSLATIONAL GENOMICS RESEARCH INSTITUTE, priority 2009, dated 2019).

With `CCCn1cnc2c1c(=O)n(CCCCC(C)=O)c(=O)n2C` [PPF, 3-methyl-1-(5-oxohexyl)-7-propyl-3,7-dihydro-1H-purine-2,6-dione], the glioma cell invasion entry in [1] is “significantly inhibited”. Besides, in the series on TROY [2] (GBM10 and GBM43 cells, 5 μM PPF for varying lengths of time), the “TROY expression over time” value is listed as “decreased in a time-dependent manner”. The TROY expression entry with TROY [2] (T98G cells, 1 μM PPF, 6 hrs) was “significant suppression”; in the series with TROY [2] (T98G cells, PPF 1 to 20 μM, 6 hrs), “decreased in concentration dependent manner”; with TROY [2] (T98G, GBM10 and GBM43 cells, 5 μM PPF, 24 hrs) it was “effective in lowering TROY expression”. Besides, in the series on CNS-1 rat model, the tumor growth result is on record as “decreased”. Also, the cell viability result in series [3] is on record as “negligible loss of cell viability”. Besides, the EGFR expression entry with EGFR is given as “did not affect”. In series [4] (Alzheimer's disease and vascular dementia), the therapeutic efficacy result is given as “therapeutic efficacy”. In series [4] (Reference 39), the side effect profile result is recorded as “minimal side effect profile”. The “TROY expression in microglia” value with TROY [5] is reported as “decreasing”. For the same molecule, the TNFR1 expression result with TNFR1 is “did not affect”. In the series on Rac1, the Rac1 activation result is “inhibited”. In addition, in the series with NF-κB, the NF-κB phosphorylation result is given as “effectively decreased”. In addition, the “surviving fraction, PPF and 2Gy radiation compared to 2Gy radiation alone” value in the series on T98G and GBM43 cells (GBM cells, 5 μM PPF 24 hours then 2 Gy) is listed as “significantly decreased”. Besides, the “surviving fraction, PPF in combination with TMZ compared to TMZ alone” value in the series with T98G and GBM43 cells (T98G and GBM43, 5 μM PPF 24 hours then 250 μM TMZ 24 hours) was “significantly decreased”. For the same molecule, the migration of microglia entry with microglia is “inhibit”. Moreover, the “proliferation of glioma cells” value in series [6] is “did not affect”. In addition, the AKT phosphorylation entry in the series with AKT is “effectively decreased”. Moreover, the “lamellipodia formation and membrane ruffling” value in series [7] is “significantly decreased”. Besides, in the series on cleaved PARP, the “cleaved PARP, PPF and TMZ compared to TMZ alone” value is listed as “increase”.
